Data as given in ChEMBL document CHEMBL5233215, “Recent developments of chalcones as potential antibacterial agents in medicinal chemistry” (Eur J Med Chem, 2020).
Converted amounts (≈) assume the structure as drawn.

What was measured:
Bacillus anthracis = test: Antibacterial activity Bacillus anthracis Sterne 34F2 assessed as inhibition of bacterial growth by CLSI based microbroth dilution assay; assay type: functional
Staphylococcus aureus [1] = test: Antibacterial activity methicillin-sensitive Staphylococcus aureus ATCC 29213 assessed as inhibition of bacterial growth by CLSI based microbroth dilution assay; assay type: functional
Staphylococcus aureus [2] = test: Antibacterial activity methicillin-resistant Staphylococcus aureus USA300 assessed as inhibition of bacterial growth by CLSI based microbroth dilution assay; assay type: functional
Staphylococcus aureus [3] = test: Antibacterial activity methicillin-resistant Staphylococcus aureus MRSA B-10732 assessed as inhibition of bacterial growth incubated for 16 to 24 hrs by broth microdilution assay; assay type: functional; conditions: time 16-24 hrs
Staphylococcus aureus [4] = test: Antibacterial activity methicillin-resistant Staphylococcus aureus MRSA ST-5457 assessed as inhibition of bacterial growth incubated for 16 to 24 hrs by broth microdilution assay; assay type: functional; conditions: time 16-24 hrs
Staphylococcus aureus [5] = test: Antibacterial activity methicillin-resistant Staphylococcus aureus MRSA B-10760 assessed as inhibition of bacterial growth incubated for 16 to 24 hrs by broth microdilution assay; assay type: functional; conditions: time 16-24 hrs
Staphylococcus aureus [6] = test: Antibacterial activity methicillin-resistant Staphylococcus aureus MRSA P-6642 assessed as inhibition of bacterial growth incubated for 16 to 24 hrs by broth microdilution assay; assay type: functional; conditions: time 16-24 hrs
Staphylococcus aureus [7] = test: Antibacterial activity methicillin-resistant Staphylococcus aureus MRSA ST-2071 assessed as inhibition of bacterial growth incubated for 16 to 24 hrs by broth microdilution assay; assay type: functional; conditions: time 16-24 hrs
Staphylococcus aureus [8] = test: Antibacterial activity methicillin-resistant Staphylococcus aureus MRSA ST-10342 assessed as inhibition of bacterial growth incubated for 16 to 24 hrs by broth microdilution assay; assay type: functional; conditions: time 16-24 hrs
Staphylococcus aureus [9] = test: Antibacterial activity methicillin-resistant Staphylococcus aureus MRSA ST-2438 assessed as inhibition of bacterial growth incubated for 16 to 24 hrs by broth microdilution assay; assay type: functional; conditions: time 16-24 hrs
Staphylococcus aureus [10] = test: Antibacterial activity methicillin-resistant Staphylococcus aureus MRSA ST-3151 assessed as inhibition of bacterial growth incubated for 16 to 24 hrs by broth microdilution assay; assay type: functional; conditions: time 16-24 hrs
Staphylococcus aureus [11] = test: Antibacterial activity methicillin-resistant Staphylococcus aureus MRSA ST-1745 assessed as inhibition of bacterial growth incubated for 16 to 24 hrs by broth microdilution assay; assay type: functional; conditions: time 16-24 hrs
Staphylococcus aureus [12] = test: Antibacterial activity methicillin-resistant Staphylococcus aureus MRSA P-8029 assessed as inhibition of bacterial growth incubated for 16 to 24 hrs by broth microdilution assay; assay type: functional; conditions: time 16-24 hrs
Staphylococcus aureus [13] = test: Antibacterial activity methicillin-resistant Staphylococcus aureus OM481 assessed as inhibition of bacterial growth by liquid dilution method; assay type: functional
Staphylococcus aureus [14] = test: Antibacterial activity methicillin-resistant Staphylococcus aureus OM584 assessed as inhibition of bacterial growth by liquid dilution method; assay type: functional
Bacillus cereus = test: Antibacterial activity Bacillus cereus assessed as inhibition of bacterial growth after 18 hrs by broth dilution method; assay type: functional
[15] = system: Pectobacterium carotovorum; test: Antibacterial activity Pectobacterium carotovorum assessed as inhibition of bacterial growth after 18 hrs by broth dilution method; assay type: functional
Bacillus subtilis [16] = test: Antibacterial activity Bacillus subtilis assessed as inhibition of bacterial growth after 18 hrs by broth dilution method; assay type: functional
Escherichia coli [17] = test: Antibacterial activity Escherichia coli assessed as inhibition of bacterial growth after 18 hrs by broth dilution method; assay type: functional
Staphylococcus aureus [18] = test: Antibacterial activity Staphylococcus aureus assessed as inhibition of bacterial growth after 18 hrs by broth dilution method; assay type: functional
Klebsiella pneumoniae = test: Antibacterial activity Klebsiella pneumoniae K4 assessed as inhibition of bacterial growth incubated for 24 hrs by microbroth dilution assay; assay type: functional
DNA = test: Binding affinity to DNA (unknown origin) assessed as DNA intercalation by measuring amount of methyl green dye replaced from DNA-methyl green complex after 24 hrs by colourimetric assay; assay type: nucleic-acid assay
Pseudomonas aeruginosa [19] = test: Antibacterial activity Pseudomonas aeruginosa Ps12 assessed as inhibition of bacterial growth incubated for 24 hrs by microbroth dilution assay; assay type: functional
Escherichia coli [20] = test: Antimicrobial activity against Escherichia coli MTCC 1573 assessed as bacterial growth inhibition incubated for 24 hrs by broth micro dilution method; assay type: functional
Bacillus subtilis [21] = test: Antimicrobial activity against Bacillus subtilis MTCC 441 assessed as bacterial growth inhibition incubated for 24 hrs by broth micro dilution method; assay type: functional
Staphylococcus aureus [22] = test: Antimicrobial activity against Staphylococcus aureus MTCC 1430 assessed as bacterial growth inhibition incubated for 24 hrs by broth micro dilution method; assay type: functional
Pseudomonas aeruginosa [23] = test: Antimicrobial activity against Pseudomonas aeruginosa MTCC 424 assessed as bacterial growth inhibition incubated for 24 hrs by broth micro dilution method; assay type: functional
Micrococcus luteus = test: Antibacterial activity Micrococcus luteus NBRC 333 assessed as inhibition of bacterial growth after 48 hrs by two fold dilution method; assay type: functional
[24] = system: Staphylococcus epidermidis; test: Antibacterial activity Staphylococcus epidermidis NBRC 12993 assessed as inhibition of bacterial growth after 48 hrs by two fold dilution method; assay type: functional
Bacillus subtilis [25] = test: Antibacterial activity Bacillus subtilis NBRC 3757 assessed as inhibition of bacterial growth after 48 hrs by two fold dilution method; assay type: functional
[26] = system: Mycobacterium tuberculosis; test: Antimycobacterial activity against Mycobacterium tuberculosis H37Rv CNCTC My 331/88 assessed as bacterial growth inhibition incubated for 5 days by resazurin dye based assay; assay type: functional; conditions: H37Rv CNCTC My 331/88, 120 h, time 5 day
Mycobacterium kansasii = test: Antimycobacterial activity against Mycobacterium kansasii CNCTC My 235/80 assessed as bacterial growth inhibition incubated for 5 days by resazurin dye based assay; assay type: functional; conditions: CNCTC My 235/80, 120 h, time 5 day
[27] = system: Mycolicibacterium smegmatis; test: Antimycobacterial activity against Mycobacterium smegmatis ATCC 607 assessed as bacterial growth inhibition incubated for 48 hrs by resazurin dye based assay; assay type: functional

## CCN(CC)c1ccc(/C=C/C(=O)c2ccc(O)cc2O)cc1
Bacillus anthracis
  MIC: 3.12 µg/mL (≈ 10 µM)
Staphylococcus aureus [1]
  MIC: 6.25 µg/mL (≈ 20.1 µM)
Staphylococcus aureus [2]
  MIC: 3.12 µg/mL (≈ 10 µM)

## COc1ccc(/C=C/C(=O)c2ccc(O)c(C)c2)cc1
Bacillus anthracis
  MIC: 12.5 µg/mL (≈ 46.6 µM)

## COc1cc(C(=O)/C=C/c2ccc(O)cc2)ccc1O
Staphylococcus aureus [3]
  MIC: 12.5 µg/mL (≈ 46.2 µM)
Staphylococcus aureus [4]
  MIC: 12.5 µg/mL (≈ 46.2 µM)
Staphylococcus aureus [5]
  MIC: 12.5 µg/mL (≈ 46.2 µM)
Staphylococcus aureus [6]
  MIC: 12.5 µg/mL (≈ 46.2 µM)
Staphylococcus aureus [7]
  MIC: 12.5 µg/mL (≈ 46.2 µM)
Staphylococcus aureus [8]
  MIC: 12.5 µg/mL (≈ 46.2 µM)
Staphylococcus aureus [9]
  MIC: 12.5 µg/mL (≈ 46.2 µM)
Staphylococcus aureus [10]
  MIC: 12.5 µg/mL (≈ 46.2 µM)
Staphylococcus aureus [11]
  MIC: 12.5 µg/mL (≈ 46.2 µM)
Staphylococcus aureus [12]
  MIC: 12.5 µg/mL (≈ 46.2 µM)

## O=C(/C=C/c1ccc(O)c(O)c1)c1ccc(-c2ccccc2)cc1
Staphylococcus aureus [3]
  MIC: 25 µg/mL (≈ 79 µM)
Staphylococcus aureus [4]
  MIC: 25 µg/mL (≈ 79 µM)
Staphylococcus aureus [5]
  MIC: 25 µg/mL (≈ 79 µM)
Staphylococcus aureus [6]
  MIC: 25 µg/mL (≈ 79 µM)
Staphylococcus aureus [7]
  MIC: 25 µg/mL (≈ 79 µM)
Staphylococcus aureus [8]
  MIC: 25 µg/mL (≈ 79 µM)
Staphylococcus aureus [9]
  MIC: 25 µg/mL (≈ 79 µM)
Staphylococcus aureus [10]
  MIC: 25 µg/mL (≈ 79 µM)
Staphylococcus aureus [11]
  MIC: 25 µg/mL (≈ 79 µM)
Staphylococcus aureus [12]
  MIC: 25 µg/mL (≈ 79 µM)

## CC(C)=CCc1c(O)ccc(C(=O)/C=C/c2ccc(O)c(C)c2)c1O
Staphylococcus aureus [13]
  MIC: 16 µg/mL (≈ 47.3 µM)
Staphylococcus aureus [14]
  MIC: 8 µg/mL (≈ 23.6 µM)

## O=C(/C=C/c1c[nH]c2ccccc12)c1cccc(OCc2ccccc2)c1
Staphylococcus aureus [3]
  MIC: 12.5 µg/mL (≈ 35.4 µM)
Staphylococcus aureus [4]
  MIC: 12.5 µg/mL (≈ 35.4 µM)
Staphylococcus aureus [5]
  MIC: 12.5 µg/mL (≈ 35.4 µM)
Staphylococcus aureus [6]
  MIC: 12.5 µg/mL (≈ 35.4 µM)
Staphylococcus aureus [7]
  MIC: 12.5 µg/mL (≈ 35.4 µM)
Staphylococcus aureus [8]
  MIC: 12.5 µg/mL (≈ 35.4 µM)
Staphylococcus aureus [9]
  MIC: 12.5 µg/mL (≈ 35.4 µM)
Staphylococcus aureus [10]
  MIC: 12.5 µg/mL (≈ 35.4 µM)
Staphylococcus aureus [11]
  MIC: 12.5 µg/mL (≈ 35.4 µM)
Staphylococcus aureus [12]
  MIC: 12.5 µg/mL (≈ 35.4 µM)

## COc1cccc(/C=C/C(=O)c2ccc(O)cc2O)c1OC
Bacillus cereus
  MIC: 62.5 µg/mL (≈ 208 µM)
[15]
  MIC: 125 µg/mL (≈ 416 µM)
Bacillus subtilis [16]
  MIC: 125 µg/mL (≈ 416 µM)
Escherichia coli [17]
  MIC: 62.5 µg/mL (≈ 208 µM)
Staphylococcus aureus [18]
  MIC: 62.5 µg/mL (≈ 208 µM)

## COc1ccc(C(=O)CC(SC(=S)N2CCOCC2)c2ccc(OC)c(OC)c2)cc1 (centres undefined)
Klebsiella pneumoniae
  MIC: 32 µg/mL (≈ 69.3 µM)
DNA
  IC50: 27.48 µg/mL (≈ 59.5 µM)
Pseudomonas aeruginosa [19]
  MIC: 32 µg/mL (≈ 69.3 µM)

## COc1cc(C(CC(=O)c2ccc(C)cc2)SC(=S)N2CCOCC2)cc(OC)c1OC (centres undefined)
Klebsiella pneumoniae
  MIC: 8 µg/mL (≈ 16.8 µM)
Pseudomonas aeruginosa [19]
  MIC: 8 µg/mL (≈ 16.8 µM)

## Cc1cc(C(=O)/C=C/c2ccc(N3CCCCC3)cc2)ccc1O
Bacillus anthracis
  MIC: 1.56 µg/mL (≈ 4.85 µM)

## CSc1ccc(/C=C/C(=O)c2nnn(-c3c(C)c(C(F)(F)F)cc(Cl)c3Cl)c2C)cc1
Escherichia coli [20]
  MIC: 3.12 µg/mL (≈ 6.42 µM)
Bacillus subtilis [21]
  MIC: 3.12 µg/mL (≈ 6.42 µM)
Staphylococcus aureus [22]
  MIC: 6.25 µg/mL (≈ 12.9 µM)
Pseudomonas aeruginosa [23]
  MIC: 12.5 µg/mL (≈ 25.7 µM)

## CC(C)=CCc1cc(C(=O)/C=C/c2ccc(O)cc2)c(O)cc1O [BROUSSOCHALCONE B]
Micrococcus luteus
  MIC: 16 µg/mL (≈ 49.3 µM)
[24]
  MIC: 8 µg/mL (≈ 24.7 µM)
Bacillus subtilis [25]
  MIC: 8 µg/mL (≈ 24.7 µM)

## CC(C)(C)c1cnc(C(=O)/C=C/c2ccccc2F)cn1
[26]
  MIC: 6.25 µg/mL (≈ 22 µM)
Mycobacterium kansasii
  MIC: 12.5 µg/mL (≈ 44 µM)
[27]
  MIC: > 500 µg/mL

## Cc1cc(C(=O)/C=C/c2ccc(Cl)cc2)ccc1O
Bacillus anthracis
  MIC: 12.5 µg/mL (≈ 45.8 µM)

## CC(C)=CCc1c(O)ccc(C(=O)/C=C/c2ccc(O)cc2)c1O [ISOBAVACHALCONE]
Micrococcus luteus
  MIC: 4 µg/mL (≈ 12.3 µM)
[24]
  MIC: 4 µg/mL (≈ 12.3 µM)
Bacillus subtilis [25]
  MIC: 4 µg/mL (≈ 12.3 µM)
Staphylococcus aureus [13]
  MIC: 8 µg/mL (≈ 24.7 µM)
Staphylococcus aureus [14]
  MIC: 8 µg/mL (≈ 24.7 µM)

## Cc1c(C(F)(F)F)cc(Cl)c(Cl)c1-n1nnc(C(=O)/C=C/c2cn(-c3ccccc3)nc2-c2ccc(Cl)cc2)c1C
Escherichia coli [20]
  MIC: 3.12 µg/mL (≈ 5.06 µM)
Bacillus subtilis [21]
  MIC: 6.25 µg/mL (≈ 10.1 µM)
Staphylococcus aureus [22]
  MIC: 12.5 µg/mL (≈ 20.3 µM)
Pseudomonas aeruginosa [23]
  MIC: 3.12 µg/mL (≈ 5.06 µM)

## O=C(/C=C/c1ccc(Cl)cc1)c1ccc(O)cc1
Staphylococcus aureus [3]
  MIC: 25 µg/mL (≈ 96.6 µM)
Staphylococcus aureus [4]
  MIC: 25 µg/mL (≈ 96.6 µM)
Staphylococcus aureus [5]
  MIC: 25 µg/mL (≈ 96.6 µM)
Staphylococcus aureus [6]
  MIC: 25 µg/mL (≈ 96.6 µM)
Staphylococcus aureus [7]
  MIC: 25 µg/mL (≈ 96.6 µM)
Staphylococcus aureus [8]
  MIC: 25 µg/mL (≈ 96.6 µM)
Staphylococcus aureus [9]
  MIC: 25 µg/mL (≈ 96.6 µM)
Staphylococcus aureus [10]
  MIC: 25 µg/mL (≈ 96.6 µM)
Staphylococcus aureus [11]
  MIC: 25 µg/mL (≈ 96.6 µM)
Staphylococcus aureus [12]
  MIC: 25 µg/mL (≈ 96.6 µM)

## O=C(/C=C/c1ccc(N2CCCCC2)cc1)c1ccc(O)cc1O
Staphylococcus aureus [1]
  MIC: 3.12 µg/mL (≈ 9.66 µM)
Staphylococcus aureus [2]
  MIC: 3.12 µg/mL (≈ 9.66 µM)
